Source: BigSolDB 2.1

A solubility (mole fraction) (in acetone, 283.2 K) of 0.000735, a solubility (mole fraction) (in acetone, 293.2 K) of 0.000972 and a solubility (mole fraction) (in acetone, 303.2 K) of 0.00129 were found for `O=c1c2ccccc2nc2n1CCc1c-2[nH]c2ccccc12` in this work. It also gave a solubility (mole fraction) (in acetone, 313.2 K) of 0.00149, a solubility (mole fraction) (in acetone, 323.2 K) of 0.00196 and a solubility (mole fraction) (in chloroform, 283.2 K) of 0.000287. The solubility (mole fraction) (in chloroform, 293.2 K) was 0.000511, the solubility (mole fraction) (in chloroform, 303.2 K) was 0.000922 and the solubility (mole fraction) (in chloroform, 313.2 K) was 0.00211. It also gave a solubility (mole fraction) (in chloroform, 323.2 K) of 0.00485, a solubility (mole fraction) (in cyclohexane, 283.2 K) of 6.24e-06 and a solubility (mole fraction) (in cyclohexane, 293.2 K) of 1.14e-05. The solubility (mole fraction) (in cyclohexane, 303.2 K) was 1.73e-05, the solubility (mole fraction) (in cyclohexane, 313.2 K) was 2.52e-05 and the solubility (mole fraction) (in cyclohexane, 323.2 K) was 3.78e-05. For the same compound, the solubility (mole fraction) (in dichloromethane, 283.2 K) was 0.00142, the solubility (mole fraction) (in dichloromethane, 288.2 K) was 0.00162 and the solubility (mole fraction) (in dichloromethane, 293.2 K) was 0.00182. For the same compound, the solubility (mole fraction) (in dichloromethane, 298.2 K) was 0.00196, the solubility (mole fraction) (in dichloromethane, 303.2 K) was 0.00224 and the solubility (mole fraction) (in diethyl ether, 283.2 K) was 0.00024. It also gave a solubility (mole fraction) (in diethyl ether, 288.2 K) of 0.000273, a solubility (mole fraction) (in diethyl ether, 293.2 K) of 0.000313 and a solubility (mole fraction) (in diethyl ether, 298.2 K) of 0.000396. The solubility (mole fraction) (in diethyl ether, 303.2 K) was 0.000454, the solubility (mole fraction) (in ethanol, 283.2 K) was 9.75e-05 and the solubility (mole fraction) (in ethanol, 293.2 K) was 0.000143. It also gave a solubility (mole fraction) (in ethanol, 303.2 K) of 0.000203, a solubility (mole fraction) (in ethanol, 313.2 K) of 0.000279 and a solubility (mole fraction) (in ethanol, 323.2 K) of 0.000394. It also gave a solubility (mole fraction) (in ethyl acetate, 283.2 K) of 0.00104, a solubility (mole fraction) (in ethyl acetate, 293.2 K) of 0.00123 and a solubility (mole fraction) (in ethyl acetate, 303.2 K) of 0.00153. For the same compound, the solubility (mole fraction) (in ethyl acetate, 313.2 K) was 0.00195, the solubility (mole fraction) (in ethyl acetate, 323.2 K) was 0.00255 and the solubility (mole fraction) (in isopropanol, 283.2 K) was 7.94e-05. The solubility (mole fraction) (in isopropanol, 293.2 K) was 0.000127, the solubility (mole fraction) (in isopropanol, 303.2 K) was 0.000192 and the solubility (mole fraction) (in isopropanol, 313.2 K) was 0.000292. The solubility (mole fraction) (in isopropanol, 323.2 K) was 0.000459, the solubility (mole fraction) (in methanol, 283.2 K) was 6.61e-05 and the solubility (mole fraction) (in methanol, 293.2 K) was 8.18e-05. It also gave a solubility (mole fraction) (in methanol, 303.2 K) of 0.000117, a solubility (mole fraction) (in methanol, 313.2 K) of 0.000161 and a solubility (mole fraction) (in methanol, 323.2 K) of 0.000229. It also gave a solubility (mole fraction) (in n-butanol, 283.2 K) of 0.000186, a solubility (mole fraction) (in n-butanol, 293.2 K) of 0.000266 and a solubility (mole fraction) (in n-butanol, 303.2 K) of 0.000369. The solubility (mole fraction) (in n-butanol, 313.2 K) was 0.000577, the solubility (mole fraction) (in n-butanol, 323.2 K) was 0.000955 and the solubility (mole fraction) (in n-hexane, 283.2 K) was 6.17e-06. For the same compound, the solubility (mole fraction) (in n-hexane, 293.2 K) was 1.21e-05, the solubility (mole fraction) (in n-hexane, 303.2 K) was 1.62e-05 and the solubility (mole fraction) (in n-hexane, 313.2 K) was 2.63e-05. For the same compound, the solubility (mole fraction) (in n-hexane, 323.2 K) was 3.97e-05, the solubility (mole fraction) (in n-pentane, 283.2 K) was 4.31e-06 and the solubility (mole fraction) (in n-pentane, 288.2 K) was 6.89e-06. The solubility (mole fraction) (in n-pentane, 293.2 K) was 9.67e-06, the solubility (mole fraction) (in n-pentane, 298.2 K) was 1.53e-05 and the solubility (mole fraction) (in n-pentane, 303.2 K) was 2.47e-05.
